This is an account of results in US12247033B2, “Triazole-substituted imidazo[1,2-a]pyrimidines as cGAS inhibitors” (GlaxoSmithKline Intellectual Property Development Limited, priority 2022, dated 2025).

Each structure is given as a SMILES string. Where a name gives a salt, the structure may show the parent alone.

One assay addresses human CGAS (157-522) (Homo sapiens, UniProt Q8N884). The assay can be described thus: biochemical.
For the next assay, the system named is CGAS. The assay can be described thus: CGAS whole blood cytokine release assay (384-well, BacMam stimulation, IP-10 by cytometric bead array). It is filed as cell-based. To be noted: Homo sapiens, 6 h; read-out: hWB pXC50 (converted). The method, then:
Blood collection: Blood was collected in a tube containing 10% Sodium Heparin (5 ml/45 ml blood final).
Protocol for CGAS Whole Blood Cytokine Release Assay: Compounds serial diluted at 1:3 were provided at 150 nL per well, in a 384 well polypropylene microplate (cat. 781280; Greiner Bio-One, Frickenhausen, Germany). 5 μL of PBS/20% Null BacMam was dispensed to all wells except for column 18 on a Multidrop Combi (Thermo Scientific, Waltham, MA). 5 uL of PBS was dispensed into column 18. The Bravo (Agilent, Santa Clara, CA) was used to transfer 45 uL of donor derived blood into the compound plates. The Bravo protocol mixed the blood and compound/PBS 5 times. The plates were incubated at 37° C., 5% CO2, for 6 hours. At the 6 hour mark the plates were removed and centrifuged for 10 minutes at 3000 RPM. 3 uL of supernatant was transferred from the plate to a 384 well NBS microplate (cat. 4513; Corning Life Sciences, Corning, NY). These plates were sealed with adhesive foil and stored in a −80 freezer until ready for analysis.
For cytokine detection, Human IP-10 BD cytometric bead array (CBA) beads (BD Biosciences, Franklin Lakes, NJ) were used. Capture bead solution was prepared by performing a 1:50 dilution of the IP-10 capture bead stock solution in BD diluent for serum/plasma (cat. 51-9003991 BD Biosciences, Franklin Lakes, NJ). 2 μL of this solution was added per well to the assay microplates which were then sealed with adhesive foil and incubated at room temperature for 2 h in the dark. Detection reagent was further prepared by performing a 1:50 dilution of the detection reagent stock solution. 2 μL of detection reagent was added per well and microplates were sealed with adhesive foil and incubated at room temperature in the dark for 1 h. After the 1 h incubation 3 uL of BD CBA wash buffer was added per well of the microplates. Data were acquired on an iQue Screener flow cytometer. The iQue used fluorescence detection to quantify the inhibition of IP-10 present in the sample wells. A sip time of 1 second per sample was used. The blue laser with excitation of 488 nm and emission filters 585/40 nm were used to capture the mean and median of IP-10 with the detector in logarithmic mode (FL2-H).
All data analysis was carried out in IDBS ActivityBase XE.

Chain of human CGAS (157-522) (Q8N884 157-522): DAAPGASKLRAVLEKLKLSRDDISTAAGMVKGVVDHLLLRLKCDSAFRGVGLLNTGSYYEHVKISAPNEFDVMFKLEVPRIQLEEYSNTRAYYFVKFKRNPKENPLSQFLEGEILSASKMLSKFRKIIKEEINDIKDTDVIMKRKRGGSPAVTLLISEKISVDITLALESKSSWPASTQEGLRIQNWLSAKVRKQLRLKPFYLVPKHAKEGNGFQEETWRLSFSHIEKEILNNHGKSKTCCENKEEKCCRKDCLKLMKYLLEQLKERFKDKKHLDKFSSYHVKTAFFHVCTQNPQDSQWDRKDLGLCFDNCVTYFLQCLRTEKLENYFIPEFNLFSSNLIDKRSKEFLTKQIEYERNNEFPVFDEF

`FC(F)(F)c1ccn2c(-c3cnc[nH]3)c(-c3nc(C(F)(F)F)n[nH]3)nc2n1` [Example 3, 5-[3-(1H-imidazol-5-yl)-7-(trifluoromethyl)imidazo[1,2-a]pyrimidin-2-yl]-3-(trifluoromethyl)-1H-1,2,4-triazole]: the IC50 was 0.00631 µM at human CGAS (157-522) and 0.794 µM in the assay with CGAS.

`FC(F)c1n[nH]c(-c2nc3ncc(Cl)cn3c2-c2c[nH]cn2)n1` [Example 4, 5-[6-chloro-3-(1H-imidazol-4-yl)imidazo[1,2-a]pyrimidin-2-yl]-3-(difluoromethyl)-1H-1,2,4-triazole]: the results for the IC50 at human CGAS (157-522) and in the assay with CGAS were 0.00398 µM and 0.0631 µM, respectively.

Consider `Fc1cnc2nc(-c3nc(C(F)F)n[nH]3)c(-c3c[nH]cn3)n2c1` [Example 5, 3-(difluoromethyl)-5-[6-fluoro-3-(1H-imidazol-4-yl)imidazo[1,2-a]pyrimidin-2-yl]-1H-1,2,4-triazole], for which the IC50 is 0.00251 µM on human CGAS (157-522) and 0.2 µM with CGAS.

With `OCC(F)(F)c1ccn2c(-c3cnc[nH]3)c(-c3nc(C(F)(F)F)n[nH]3)nc2n1` [Example 6, 2,2-difluoro-2-[3-(1H-imidazol-5-yl)-2-[3-(trifluoromethyl)-1H-1,2,4-triazol-5-yl]imidazo[1,2-a]pyrimidin-7-yl]ethan-1-ol], the IC50 at human CGAS (157-522) was 0.00398 µM; with CGAS it was 0.501 µM.

Take `FC(F)(F)c1n[nH]c(-c2nc3nc(Cl)ccn3c2-c2cnc[nH]2)n1` [Example 7, 5-[7-chloro-3-(1H-imidazol-5-yl)imidazo[1,2-a]pyrimidin-2-yl]-3-(trifluoromethyl)-1H-1,2,4-triazole, trifluoroacetic acid salt]: the IC50 at human CGAS (157-522) is 0.00631 µM; with CGAS, 1.58 µM.

`FC(F)c1ccn2c(-c3cnc[nH]3)c(-c3nc(C(F)F)n[nH]3)nc2n1` [Example 8, 3-(difluoromethyl)-5-[7-(difluoromethyl)-3-(1H-imidazol-5-yl)imidazo[1,2-a]pyrimidin-2-yl]-1H-1,2,4-triazole]: the IC50 against human CGAS (157-522) was 0.00316 µM; with CGAS it was 0.2 µM.

Turning to `FC(F)(F)c1n[nH]c(-c2nc3nc4c(cn3c2-c2c[nH]cn2)COC4)n1` [Example 10, 12-(1H-imidazol-4-yl)-11-[3-(trifluoromethyl)-1H-1,2,4-triazol-5-yl]-5-oxa-1,8,10-triazatricyclo[7.3.0.0^3, ^7] dodeca-2,7,9,11-tetraene, 0.2 trifluoroacetic acid salt], the IC50 was 0.00631 µM at human CGAS (157-522) and 0.126 µM in the assay on CGAS.

With `CC(O)c1ccn2c(-c3cnc[nH]3)c(-c3nc(C(F)(F)F)n[nH]3)nc2n1` (stereo not drawn) [Example 13, 1-[3-(1H-imidazol-5-yl)-2-[3-(trifluoromethyl)-1H-1,2,4-triazol-5-yl]imidazo[1,2-a]pyrimidin-7-yl]ethan-1-ol], the IC50 was 0.01 µM on human CGAS (157-522) and 1 µM in the assay on CGAS.

As to `CC(=O)c1ccn2c(-c3cnc[nH]3)c(-c3nc(C(F)(F)F)n[nH]3)nc2n1` [Example 14, 1-[3-(1H-imidazol-5-yl)-2-[3-(trifluoromethyl)-1H-1,2,4-triazol-5-yl]imidazo[1,2-a]pyrimidin-7-yl]ethan-1-one], the IC50 against human CGAS (157-522) was 0.01 µM; in the assay with CGAS, 0.0631 µM.

As to `FC(F)(F)c1n[nH]c(-c2nc3ncc(CC4CCCCC4)cn3c2-c2cnc[nH]2)n1` [Example 15, 5-[6-(cyclohexylmethyl)-3-(1H-imidazol-5-yl)imidazo[1,2-a]pyrimidin-2-yl]-3-(trifluoromethyl)-1H-1,2,4-triazole, trifluoroacetic acid salt], the IC50 at human CGAS (157-522) is 0.01 µM; in the assay on CGAS it was above 31.6 µM.

With `FC(F)(F)c1n[nH]c(-c2nc3ncc(C4CCCC4)cn3c2-c2cnc[nH]2)n1` [Example 16, 5-[6-cyclopentyl-3-(1H-imidazol-5-yl)imidazo[1,2-a]pyrimidin-2-yl]-3-(trifluoromethyl)-1H-1,2,4-triazole, trifluoroacetic acid salt], the values for the IC50 on human CGAS (157-522) and with CGAS were 0.00398 µM and 3.16 µM, respectively.

Regarding `COCC(F)(F)c1ccn2c(-c3cnc[nH]3)c(-c3nc(C(F)(F)F)n[nH]3)nc2n1` [Example 19, 5-[7-(1,1-difluoro-2-methoxyethyl)-3-(1H-imidazol-5-yl)imidazo[1,2-a]pyrimidin-2-yl]-3-(trifluoromethyl)-1H-1,2,4-triazole], the figures for the IC50 against human CGAS (157-522) and with CGAS were 0.00631 µM and 0.398 µM, respectively.

Take `CSc1ccn2c(-c3cnc[nH]3)c(-c3nc(C(F)(F)F)n[nH]3)nc2n1` [Example 21, 5-[3-(1H-imidazol-5-yl)-7-(methylsulfanyl)imidazo[1,2-a]pyrimidin-2-yl]-3-(trifluoromethyl)-1H-1,2,4-triazole]: the IC50 on human CGAS (157-522) is 0.00501 µM; with CGAS, 0.631 µM.

For `CS(=O)(=O)c1cnc2nc(-c3nc(C(F)(F)F)n[nH]3)c(-c3cnc[nH]3)n2c1` [Example 22, 5-[3-(1H-imidazol-5-yl)-6-methanesulfonylimidazo[1,2-a]pyrimidin-2-yl]-3-(trifluoromethyl)-1H-1,2,4-triazole], the IC50 at human CGAS (157-522) was 0.0251 µM; in the assay on CGAS, 7.94 µM.

`O=C(CCCOP(=O)(O)O)OCn1cnc(-c2c(-c3nc(C(F)(F)F)nn3COC(=O)CCCOP(=O)(O)O)nc3ncccn23)c1` [Example 30, {4-oxo-4-[(5-{3-[1-({[4-(phosphonooxy)butanoyl]oxy}methyl)-1H-imidazol-4-yl]imidazo[1,2-a]pyrimidin-2-yl}-3-(trifluoromethyl)-1H-1,2,4-triazol-1-yl)methoxy]butoxy}phosphonic acid, trifluoroacetic acid salt]: the figures for the IC50 against human CGAS (157-522) and with CGAS were 0.316 µM and 1.26 µM, respectively.

`CC1(C)Cc2nc3nc(-c4nc(C(F)(F)F)n[nH]4)c(-c4c[nH]cn4)n3cc2CO1` [Example 137, 6-(1H-imidazol-4-yl)-12,12-dimethyl-5-[3-(trifluoromethyl)-1H-1,2,4-triazol-5-yl]-11-oxa-2,4,7-triazatricyclo[7.4.0.0^3,^7]trideca-1,3,5,8-tetraene]: the IC50 with CGAS was 0.631 µM.

Take `FC(F)(F)c1n[nH]c(-c2nc3ncc(C4(C(F)(F)F)CC4)cn3c2-c2cnc[nH]2)n1` [Example 144, 5-[3-(1H-imidazol-5-yl)-6-[1-(trifluoromethyl)cyclopropyl]imidazo[1,2-a]pyrimidin-2-yl]-3-(trifluoromethyl)-1H-1,2,4-triazole]: the IC50 in the assay on CGAS was 0.794 µM.

`O=C(COCc1cnc2nc(-c3nc(C(F)(F)F)n[nH]3)c(-c3c[nH]cn3)n2c1)N1CCCC1` [Example 147, 2-{[3-(1H-imidazol-4-yl)-2-[3-(trifluoromethyl)-1H-1,2,4-triazol-5-yl]imidazo[1,2-a]pyrimidin-6-yl]methoxy}-1-(pyrrolidin-1-yl)ethan-1-one]: in the assay with CGAS, the IC50 is 5.01 µM.

As to `Cc1ccn(CCOCc2cnc3nc(-c4nc(C(F)(F)F)n[nH]4)c(-c4c[nH]cn4)n3c2)n1` [Example 148, 5-[3-(1H-imidazol-4-yl)-6-{[2-(3-methyl-1H-pyrazol-1-yl)ethoxy]methyl}imidazo[1,2-a]pyrimidin-2-yl]-3-(trifluoromethyl)-1H-1,2,4-triazole], the IC50 with CGAS is 3.98 µM.

Take `FC(F)(F)c1n[nH]c(-c2nc3ncc(COCCn4cc(Cl)cn4)cn3c2-c2c[nH]cn2)n1` [Example 151, 5-(6-{[2-(4-chloro-1H-pyrazol-1-yl)ethoxy]methyl}-3-(1H-imidazol-4-yl)imidazo[1,2-a]pyrimidin-2-yl)-3-(trifluoromethyl)-1H-1,2,4-triazole]: the IC50 in the assay on CGAS is 3.98 µM.

For `O=C(COCc1cnc2nc(-c3nc(C(F)(F)F)n[nH]3)c(-c3c[nH]cn3)n2c1)N1CCCCC1` [Example 152, 2-{[3-(1H-imidazol-4-yl)-2-[3-(trifluoromethyl)-1H-1,2,4-triazol-5-yl]imidazo[1,2-a]pyrimidin-6-yl]methoxy}-1-(piperidin-1-yl)ethan-1-one], the IC50 with CGAS is 2.51 µM.

As to `CCCOCCOCc1cnc2nc(-c3nc(C(F)(F)F)n[nH]3)c(-c3c[nH]cn3)n2c1` [Example 153, 5-[3-(1H-imidazol-4-yl)-6-[(2-propoxyethoxy)methyl]imidazo[1,2-a]pyrimidin-2-yl]-3-(trifluoromethyl)-1H-1,2,4-triazole], the IC50 with CGAS was 0.794 µM.

In the case of `Fc1cnc2nc(-c3nc(Br)n[nH]3)c(-c3c[nH]cn3)n2c1` [Example 159, 3-bromo-5-[6-fluoro-3-(1H-imidazol-4-yl)imidazo[1,2-a]pyrimidin-2-yl]-1H-1,2,4-triazole], the IC50 in the assay with CGAS is 0.2 µM.

In the case of `OCC1CN(Cc2ccn3c(-c4c[nH]cn4)c(-c4nc(C(F)(F)F)n[nH]4)nc3n2)C1` [Example 164, (1-{[3-(1H-imidazol-4-yl)-2-[3-(trifluoromethyl)-1H-1,2,4-triazol-5-yl]imidazo[1,2-a]pyrimidin-7-yl]methyl}azetidin-3-yl)methanol], in the assay on CGAS, the IC50 was 6.31 µM.
